Patent publication US9474278B2, “Biocidal compositions and methods of use” (Dow Global Technologies LLC, priority 2011, dated 2016)

Tests used:
[1] = system: Staphylococcus aureus ATCC 6538, Enterobacter aerogenes ATCC 13048, and Escherichia coli ATCC 8739; assay: Biocidal efficacy: minimum biocide concentration for 99.9% bacterial kill in inoculated salt solution with re-challenges; type: cell-based; conditions: alone or in the combination, 37° C.
Experimental: (§1) The synergy indexes reported in the following examples are calculated using the following equation: Synergy Index=Ca/CA+Cb/CB
Ca: Concentration of biocide A required to achieve a certain level of bacterial kill when used in combination with B.
CA: Concentration of biocide A required to achieve a certain level of bacterial kill when used alone.
Cb: Concentration of biocide B required to achieve a certain level of bacterial kill when used in combination with A.
CB: Concentration of biocide B required to achieve a certain level of bacterial kill when used alone.
(§2) A synergy index (SI) of 1 indicates additivity, a synergy index of less than 1 indicates synergy, and a synergy index greater than 1 indicates antagonism.
A sterile salt solution (0.2203 g of CaCl2, 0.1847 g of MgSO4, and 0.2033 g of NaHCO3 in 1 L water) is inoculated with approximately 10^7 CFU/mL of Staphylococcus aureus ATCC 6538, Enterobacter aerogenes ATCC 13048, and Escherichia coli ATCC 8739. Aliquots of the cell suspension are then treated with THPS, BIT, and combinations of these actives at selected concentrations and incubated at 37° C. for 14 days. After incubation for 24 hours, 3 days, and 7 days, the aliquots are re-challenged with bacterial suspension of the same bacteria at a final bacterial concentration of 10^5 CFU/mL. The biocidal efficacy is measured at 2 hours and 14 days by determining the minimum biocide concentration for 99.9% bacterial kill in the aliquots. Synergy Index is then calculated. Table 1 and 2 summarize the efficacy of each biocide and their combinations at 2 hour and 14 day treatment time respectively, and the resulting Synergy Index of each combination.

[2] = system: Candida albican, ATCC #10231; assay: 96 well micro titer plate MIC / synergy assay in SDB; type: cell-based; conditions: alone or in the combination, 48 hours
Experimental: as §1, §2

## O=c1[nH]sc2ccccc12 [BIT, 1,2-benzisothiazolin-3-one]
[1]; BIT concentration, 2 hour treatment
  Concentration (ppm active) for 99.9% bacterial kill in 2 hours, BIT: >300 ppm active
[1]; BIT concentration, 14 day treatment, re-challenged at 24 hours, 3 days, 7 days
  Concentration (ppm active) for 99.9% bacterial kill in 14 days, BIT: 150 ppm active

## Cn1sc2ccccc2c1=O [MBIT, 2-methyl-1,2-benzisothiazolin-3-one]
[2]; MBIT concentration
  Minimum Inhibitory Concentration against Candida albican (ppm), MBIT: 0.375 ppm

## tetrakis (hydroxymethyl) phosphonium sulfate [THPS]
[2]; THPS concentration
  Minimum Inhibitory Concentration against Candida albican (ppm), THPS: 1000 ppm
[1]; THPS concentration, 2 hour treatment
  Concentration (ppm active) for 99.9% bacterial kill in 2 hours, THPS: 38 ppm active
[1]; THPS concentration, 14 day treatment, re-challenged at 24 hours, 3 days, 7 days
  Concentration (ppm active) for 99.9% bacterial kill in 14 days, THPS: >300 ppm active
